# Laboratory results taken from article PMC12396409, “Screening and hit evaluation of a microbial metabolite library against the pathogenic Plasmodium falciparum and Toxoplasma gondii parasites” (International Journal for Parasitology: Drugs and Drug …, 2025).
# Read-outs that look alike come from different tables or passages of the source.
# Columns and labels:
# [1] = tested on: P. falciparum 3D7 parasites; test: P. falciparum growth inhibition assay, 1-cycle (72 h treatment), SYBR DNA staining (library screen at 2 μg/mL and dose-response); type: cell-based, Plasmodium falciparum; settings: for activity at 2 µg/mL / Pf_72h_%Growth_Rep1 / Pf_72h_%Growth_Rep2: 72 h
# [2] = tested on: P. falciparum 3D7 parasites; test: P. falciparum growth inhibition assay, 2-cycle (120 h treatment), delayed-death screen and dose-response; type: cell-based, Plasmodium falciparum; settings: 120 h; for activity at 2 µg/mL: Plasmodium falciparum
# [3] = tested on: T. gondii RH strain (RH-Tub-eYFP) tachyzoites; test: microbe, parasite or virus in culture; type: cell-based, Toxoplasma gondii; settings: 72 h, 72 h; for percent parasite growth at 2 µg/mL: Toxoplasma gondii
# [4] = library screen at 2 μg/mL, % growth, replicate 1
# [5] = library screen at 2 μg/mL, % growth, replicate 2
# [6] = P. falciparum, screen at 2 μg/mL, replicate 1
# [7] = P. falciparum, screen at 2 μg/mL, replicate 2
# [8] = T. gondii, screen at 2 μg/mL, replicate 1
# [9] = T. gondii, screen at 2 μg/mL, replicate 2
# [10] = P. falciparum, parasite screen 2 μg/mL, % growth, replicate 1
# [11] = P. falciparum, parasite screen 2 μg/mL, % growth, replicate 2
# [12] = T. gondii, parasite screen 2 μg/mL, % growth, replicate 1
# [13] = T. gondii, parasite screen 2 μg/mL, % growth, replicate 2
molecule,measurement,setting,value
CC[C@H]1OC(=O)[C@H](C)[C@@H](O[C@H]2C[C@@](C)(OC)[C@@H](O)[C@H](C)O2)[C@H](C)[C@@H](O[C@@H]2O[C@H](C)C[C@H](N(C)C)[C@H]2O)[C@](C)(O)C[C@@H](C)[C@@H]2N[C@@H](COCCOC)O[C@H]([C@H]2C)[C@]1(C)O [Dirithromycin],activity at 2 µg/mL,"[1]; Plasmodium falciparum, 3D7, 72 h, library screen at 2 μg/mL, % growth, replicate 1, read-out: Pf_72h_%Growth_Rep1",80.4%
same,activity at 2 µg/mL,"[1]; Plasmodium falciparum, 3D7, 72 h, library screen at 2 μg/mL, % growth, replicate 2, read-out: Pf_72h_%Growth_Rep2",73.2%
same,activity at 2 µg/mL,"[2]; 3D7, 120 h, library screen at 2 μg/mL, % growth, replicate 1, read-out: Pf_120h_%Growth_Rep1",62.1%
same,activity at 2 µg/mL,"[2]; 3D7, 120 h, library screen at 2 μg/mL, % growth, replicate 2, read-out: Pf_120h_%Growth_Rep2",48.4%
same,percent parasite growth at 2 µg/mL,"[3]; library screen at 2 μg/mL, % growth, replicate 1, read-out: Tg_72h_%Growth_Rep1",67.5%
same,percent parasite growth at 2 µg/mL,"[3]; library screen at 2 μg/mL, % growth, replicate 2, read-out: Tg_72h_%Growth_Rep2",74.8%
"CC(=O)NCCc1c[nH]c2ccccc12 [Acetyltryptamine, N-]",Pf_72h_%Growth_Rep1,[1]; [4],83.66%
same,Pf_72h_%Growth_Rep2,[1]; [5],90.45%
same,Pf_120h_%Growth_Rep1,[2]; [4],84.03%
same,Pf_120h_%Growth_Rep2,[2]; [5],87.17%
same,Tg_72h_%Growth_Rep1,[3]; [4],109.38%
same,Tg_72h_%Growth_Rep2,[3]; [5],85.68%
CC[C@H]1CCC[C@H](O[C@H]2CC[C@H](N(C)C)[C@@H](C)O2)[C@@H](C)C(=O)C2=C[C@@H]3[C@@H](C=C[C@@H]4C[C@@H](O[C@@H]5O[C@@H](C)[C@H](OC)[C@@H](OC)[C@H]5OC)C[C@@H]34)[C@@H]2CC(=O)O1 [Spinosyn A],activity at 2 µg/mL,"[1]; Plasmodium falciparum, 3D7, 72 h, P. falciparum, parasite screen 2 μg/mL, % growth, replicate 1, read-out: Pf_72h_%Growth_Rep1",5.81%
same,activity at 2 µg/mL,"[1]; Plasmodium falciparum, 3D7, 72 h, P. falciparum, parasite screen 2 μg/mL, % growth, replicate 2, read-out: Pf_72h_%Growth_Rep2",3.23%
same,IC50,"[1]; Plasmodium falciparum, 3D7, 72 h treatment, mean ± S.D., n ≥ 3, read-out: IC50 (μM), P. falciparum",> 1 µM
same,activity at 2 µg/mL,"[2]; 3D7, 120 h, P. falciparum, parasite screen 2 μg/mL, % growth, replicate 1, read-out: Pf_120h_%Growth_Rep1",0.89%
same,activity at 2 µg/mL,"[2]; 3D7, 120 h, P. falciparum, parasite screen 2 μg/mL, % growth, replicate 2, read-out: Pf_120h_%Growth_Rep2",-4.31%
same,percent parasite growth at 2 µg/mL,"[3]; T. gondii, parasite screen 2 μg/mL, % growth, replicate 1, read-out: Tg_72h_%Growth_Rep1",56.8%
same,percent parasite growth at 2 µg/mL,"[3]; T. gondii, parasite screen 2 μg/mL, % growth, replicate 2, read-out: Tg_72h_%Growth_Rep2",95.1%
CC(C)=C[C@H]1C[C@H](C)[C@]2(CC[C@]3(C)C[C@@H]4C(C)=CC(=O)[C@H]4/C(C=O)=C\C[C@H]32)O1 [Anhydroepiophiobolin A],Pf_72h_%Growth_Rep1,[1]; [4],2.50%
same,Pf_72h_%Growth_Rep2,[1]; [5],3.83%
same,Pf_120h_%Growth_Rep1,[2]; [4],-5.12%
same,Pf_120h_%Growth_Rep2,[2]; [5],6.51%
same,Tg_72h_%Growth_Rep1,[3]; [4],120.33%
same,Tg_72h_%Growth_Rep2,[3]; [5],104.77%
CN1C(=O)c2ccccc2-n2c(nc3ccccc3c2=O)[C@@H]1Cc1ccccc1 [Benzomalvin A],Pf_72h_%Growth_Rep1,[1]; [4],68.69%
same,Pf_72h_%Growth_Rep2,[1]; [5],85.94%
same,Pf_120h_%Growth_Rep1,[2]; [4],152.22%
same,Pf_120h_%Growth_Rep2,[2]; [5],94.98%
same,Tg_72h_%Growth_Rep1,[3]; [4],76.13%
same,Tg_72h_%Growth_Rep2,[3]; [5],90.69%
COc1ccc(Cl)c(C)c1C(=O)O[C@@H]1C[C@H](O[C@H]2[C@H](O)C[C@H](O[C@H]3CCC[C@@H]4[C@@H]3C=C[C@H]3CCCC/C=C/[C@@H]5C=C(C(=O)O)[C@H](C)C[C@]56OC(=O)C(=C6O)OC(=O)[C@@]43C)O[C@@H]2C)O[C@H](C)[C@H]1O [Chlorothricin],Pf_72h_%Growth_Rep1,[1]; [6],106.01%
same,Pf_72h_%Growth_Rep2,[1]; [7],86.61%
same,Pf_120h_%Growth_Rep1,[2]; [6],151.59%
same,Pf_120h_%Growth_Rep2,[2]; [7],96.98%
same,Tg_72h_%Growth_Rep1,[3]; [8],75.08%
same,Tg_72h_%Growth_Rep2,[3]; [9],94.25%
Spirolaxine,Pf_72h_%Growth_Rep1,[1]; [10],54.30%
same,Pf_72h_%Growth_Rep2,[1]; [11],41.64%
same,Pf_120h_%Growth_Rep1,[2]; [10],32.74%
same,Pf_120h_%Growth_Rep2,[2]; [11],18.31%
same,Tg_72h_%Growth_Rep1,[3]; [12],20.75%
same,Tg_72h_%Growth_Rep2,[3]; [13],22.73%
CCC[C@H]1CC2=C(C[C@@H](CC)CC3=C1C(=O)OC3=O)C(=O)OC2=O [Byssochlamic acid],activity at 2 µg/mL,"[1]; Plasmodium falciparum, 3D7, P. falciparum, screen at 2 μg/mL, replicate 1, read-out: Pf_72h_%Growth_Rep1",89.8%
same,activity at 2 µg/mL,"[1]; Plasmodium falciparum, 3D7, P. falciparum, screen at 2 μg/mL, replicate 2, read-out: Pf_72h_%Growth_Rep2",83.3%
same,activity at 2 µg/mL,"[2]; 3D7, P. falciparum, screen at 2 μg/mL, replicate 1, read-out: Pf_120h_%Growth_Rep1",129%
same,activity at 2 µg/mL,"[2]; 3D7, P. falciparum, screen at 2 μg/mL, replicate 2, read-out: Pf_120h_%Growth_Rep2",88.1%
same,percent parasite growth at 2 µg/mL,"[3]; T. gondii, screen at 2 μg/mL, replicate 1, read-out: Tg_72h_%Growth_Rep1",92.1%
same,percent parasite growth at 2 µg/mL,"[3]; T. gondii, screen at 2 μg/mL, replicate 2, read-out: Tg_72h_%Growth_Rep2",94.4%
COc1cc(-c2ccccn2)nc(/C=N/O)c1SC [Collismycin],Pf_72h_%Growth_Rep1,[1]; [6],3.71%
same,Pf_72h_%Growth_Rep2,[1]; [7],8.55%
same,Pf_120h_%Growth_Rep1,[2]; [6],-4.02%
same,Pf_120h_%Growth_Rep2,[2]; [7],3.02%
same,Tg_72h_%Growth_Rep1,[3]; [8],-1.50%
same,Tg_72h_%Growth_Rep2,[3]; [9],0.69%
CCCCC[C@@H]1CCCCC[C@@H](O)C[C@H](O)[C@H](O)/C=C/C(=O)O1 [Sch 725674],Pf_72h_%Growth_Rep1,[1]; [10],94.68%
same,Pf_72h_%Growth_Rep2,[1]; [11],136.05%
same,Pf_120h_%Growth_Rep1,[2]; [10],118.17%
same,Pf_120h_%Growth_Rep2,[2]; [11],96.28%
same,Tg_72h_%Growth_Rep1,[3]; [12],110.92%
same,Tg_72h_%Growth_Rep2,[3]; [13],69.04%
